Experimental findings from patent US7591979B2 (priority 2003, dated 2009) are described below.

This test concerns naturally-occurring algae from water samples of the Clinch River. The test is classed as cell-based, naturally occurring freshwater algae.

Values joined by “and” are separate entries in the source; they are usually repeats but may differ in a detail not shown here. Identical values can stand only once.

With `COP(=S)(OC)Oc1ccc([N+](=O)[O-])cc1` [MPt, Methyl Parathion], the “Percentage (%) decrease in photochemical yield” value was −5.41% and −7.80% and −3.19%.
